According to ChEMBL document CHEMBL1134865, “Antimalarial compounds from Parinari capensis” (Bioorg Med Chem Lett, 2002):
In brackets after ≈: the same amount, converted by molar mass.

What was measured:
[1] = Compound was evaluated for toxicity on Human kidney epithelial (Graham cells) at a dose of 100 ug/mL; assay type: cell-based
[2] = Compound was evaluated for its antimalarial activity in vitro on Plasmodium falciparum; assay type: functional
[3] = Compound was evaluated for toxicity on Human kidney epithelial (Graham cells) at a dose of 100 ug/mL; Not toxic; assay type: cell-based

Compound | IC50 [1] [µg/mL] | IC50 [2] [µg/mL] | IC50 [3]
C=C1C(=O)[C@@]23CCC4[C@@]5(C)CCC[C@@]4(OC5=O)[C@@]2(C)CC[C@]1(O)C3 (stereo not given in full) | 1.73 (≈ 5.24 µM) | 0.54 (≈ 1.63 µM) | –
C=C1C(=O)[C@@]23CC[C@@H]4[C@@]5(C)CCC[C@@]4(OC5=O)[C@@]2(C)CC[C@]1(OC)C3 | 1.13 (≈ 3.28 µM) | 0.67 (≈ 1.95 µM) | –
C=C1C(=O)[C@@]23CCC4[C@@]5(C)CCC[C@@]4(OC5=O)[C@@]2(C)CC[C@@H]1C3 (stereo not given in full) | 3.01 (≈ 9.57 µM) | 1.57 (≈ 4.99 µM) | –
CCN(CC)CCCC(C)Nc1ccnc2cc(Cl)ccc12 (stereo not given) [CHLOROQUINE] | – | 0.04 (≈ 0.125 µM) | Non-toxic
C=C[C@H]1CN2CC[C@H]1C[C@H]2[C@H](O)c1ccnc2ccc(OC)cc12 [QUININE] | – | 0.17 (≈ 0.524 µM) | Non-toxic
